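96-well plates; 48 h exposure; 5 concentrations. Endpoints by linear interpolation between flanking doses. Not reached: highest tested concentration assigned. TGI: concentration producing complete growth inhibition.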
Tests used:
Experiment in all cases: DTP human tumour cell line panel, 48 h
RXF 393 renal = tested on: RXF 393 renal
SR leukemia = tested on: SR leukemia
SF-539 CNS = tested on: SF-539 CNS
A549 NSCLC = tested on: A549 NSCLC
786-0 renal = tested on: 786-0 renal
SK-MEL-5 melanoma = tested on: SK-MEL-5 melanoma
OVCAR-4 ovarian = tested on: OVCAR-4 ovarian
SK-OV-3 ovarian = tested on: SK-OV-3 ovarian
CAKI-1 renal = tested on: CAKI-1 renal
UACC-257 melanoma = tested on: UACC-257 melanoma
NCI-H522 lung = tested on: NCI-H522 lung
SN12C renal = tested on: SN12C renal
UO-31 renal = tested on: UO-31 renal
MCF7 breast = tested on: MCF7 breast
K-562 leukemia = tested on: K-562 leukemia
U251 CNS = tested on: U251 CNS
HCT-116 colon = tested on: HCT-116 colon
SW-620 colon = tested on: SW-620 colon
SF-268 CNS = tested on: SF-268 CNS
PC-3 prostate = tested on: PC-3 prostate
OVCAR-8 ovarian = tested on: OVCAR-8 ovarian
IGROV1 ovarian = tested on: IGROV1 ovarian
SF-295 CNS = tested on: SF-295 CNS
HT29 colon = tested on: HT29 colon
MDA-N = tested on: MDA-N
HOP-62 NSCLC = tested on: HOP-62 NSCLC
NCI-H23 lung = tested on: NCI-H23 lung
HL-60(TB) leukemia = tested on: HL-60(TB) leukemia
HCT-15 colon = tested on: HCT-15 colon
OVCAR-3 ovarian = tested on: OVCAR-3 ovarian
MOLT-4 leukemia = tested on: MOLT-4 leukemia
HS 578T breast = tested on: HS 578T breast
UACC-62 melanoma = tested on: UACC-62 melanoma
NCI-H226 lung = tested on: NCI-H226 lung
BT-549 breast = tested on: BT-549 breast
MDA-MB-231 breast = tested on: MDA-MB-231 breast
OVCAR-5 ovarian = tested on: OVCAR-5 ovarian
RPMI-8226 leukemia = tested on: RPMI-8226 leukemia
SNB-75 CNS = tested on: SNB-75 CNS
MDA-MB-435 = tested on: MDA-MB-435
NCI/ADR-RES ovarian = tested on: NCI/ADR-RES ovarian
SNB-19 CNS = tested on: SNB-19 CNS
COLO 205 colon = tested on: COLO 205 colon
M14 melanoma = tested on: M14 melanoma
TK-10 renal = tested on: TK-10 renal
SK-MEL-2 melanoma = tested on: SK-MEL-2 melanoma
SK-MEL-28 melanoma = tested on: SK-MEL-28 melanoma
KM12 colon = tested on: KM12 colon
ACHN renal = tested on: ACHN renal
T-47D breast = tested on: T-47D breast
LOX IMVI melanoma = tested on: LOX IMVI melanoma
NCI-H460 lung = tested on: NCI-H460 lung
DU-145 prostate = tested on: DU-145 prostate
EKVX NSCLC = tested on: EKVX NSCLC
A498 renal = tested on: A498 renal
MALME-3M melanoma = tested on: MALME-3M melanoma
HOP-92 NSCLC = tested on: HOP-92 NSCLC
CCRF-CEM leukemia = tested on: CCRF-CEM leukemia

## C/C(=N/O)c1cccc(Nc2nc3ccc(Cl)cc3c3[nH]c4ccccc4c23)c1
RXF 393 renal
  TGI: 3.27 µM
SR leukemia
  TGI: > 100 µM
SF-539 CNS
  TGI: 12.3 µM
A549 NSCLC
  TGI: 5.13 µM
786-0 renal
  TGI: 5.22 µM
SK-MEL-5 melanoma
  TGI: 2.56 µM
OVCAR-4 ovarian
  TGI: 4.82 µM
SK-OV-3 ovarian
  TGI: 13.6 µM
CAKI-1 renal
  TGI: 6.11 µM
UACC-257 melanoma
  TGI: 12.1 µM
NCI-H522 lung
  TGI: 3.26 µM
SN12C renal
  TGI: 9.53 µM
UO-31 renal
  TGI: 8.86 µM
MCF7 breast
  TGI: 2.75 µM
K-562 leukemia
  TGI: > 100 µM
U251 CNS
  TGI: 9.94 µM
HCT-116 colon
  TGI: 2.66 µM
SW-620 colon
  TGI: 5.03 µM
SF-268 CNS
  TGI: 5.15 µM
PC-3 prostate
  TGI: 4.7 µM
OVCAR-8 ovarian
  TGI: 7.77 µM
IGROV1 ovarian
  TGI: 11.5 µM
SF-295 CNS
  TGI: 4.32 µM
HT29 colon
  TGI: 5.36 µM
MDA-N
  TGI: 4.05 µM
HOP-62 NSCLC
  TGI: 6.99 µM
NCI-H23 lung
  TGI: 4.24 µM
HL-60(TB) leukemia
  TGI: 6.78 µM
HCT-15 colon
  TGI: 5.03 µM
OVCAR-3 ovarian
  TGI: 4.65 µM
MOLT-4 leukemia
  TGI: 5.97 µM
HS 578T breast
  TGI: 7.09 µM
UACC-62 melanoma
  TGI: 3.94 µM
NCI-H226 lung
  TGI: 9.82 µM
BT-549 breast
  TGI: 11.6 µM
MDA-MB-231 breast
  TGI: 9.32 µM
OVCAR-5 ovarian
  TGI: 6.83 µM
RPMI-8226 leukemia
  TGI: 3.52 µM
SNB-75 CNS
  TGI: 3.36 µM
MDA-MB-435
  TGI: 3.99 µM
NCI/ADR-RES ovarian
  TGI: 6.26 µM
SNB-19 CNS
  TGI: 12 µM
COLO 205 colon
  TGI: 4.15 µM
M14 melanoma
  TGI: 3.54 µM
TK-10 renal
  TGI: 6.51 µM
SK-MEL-2 melanoma
  TGI: 3.88 µM
SK-MEL-28 melanoma
  TGI: 5.25 µM
KM12 colon
  TGI: 3.79 µM
ACHN renal
  TGI: 4.5 µM
T-47D breast
  TGI: 3.5 µM
LOX IMVI melanoma
  TGI: 5.73 µM
NCI-H460 lung
  TGI: 4.29 µM
DU-145 prostate
  TGI: 4.41 µM

## NC(=O)C(c1ccccc1)N1OC2C(=O)N(c3cccc4ccccc34)C(=O)C2C1c1c2ccccc2c(Cl)c2ccccc12 (centres undefined)
RXF 393 renal
  TGI: 16.8 µM
EKVX NSCLC
  TGI: 30 µM
SR leukemia
  TGI: 3.8 µM
SF-539 CNS
  TGI: 12.9 µM
A549 NSCLC
  TGI: > 50 µM
786-0 renal
  TGI: 21.4 µM
SK-MEL-5 melanoma
  TGI: 11.2 µM
OVCAR-4 ovarian
  TGI: 33.2 µM
SK-OV-3 ovarian
  TGI: > 50 µM
CAKI-1 renal
  TGI: 22.7 µM
UACC-257 melanoma
  TGI: 15.7 µM
NCI-H522 lung
  TGI: 44.3 µM
SN12C renal
  TGI: 16.3 µM
UO-31 renal
  TGI: 20.3 µM
MCF7 breast
  TGI: 11.2 µM
K-562 leukemia
  TGI: > 50 µM
U251 CNS
  TGI: 15.9 µM
HCT-116 colon
  TGI: 3.05 µM
SW-620 colon
  TGI: > 50 µM
A498 renal
  TGI: 37.4 µM
SF-268 CNS
  TGI: 25.1 µM
PC-3 prostate
  TGI: 18.6 µM
OVCAR-8 ovarian
  TGI: 19.4 µM
IGROV1 ovarian
  TGI: 39.8 µM
SF-295 CNS
  TGI: 23.9 µM
HT29 colon
  TGI: 14.7 µM
MDA-N
  TGI: 7.88 µM
HOP-62 NSCLC
  TGI: 27.8 µM
NCI-H23 lung
  TGI: 26 µM
HL-60(TB) leukemia
  TGI: 11.2 µM
HCT-15 colon
  TGI: 16.4 µM
OVCAR-3 ovarian
  TGI: 17.5 µM
MOLT-4 leukemia
  TGI: 9.03 µM
HS 578T breast
  TGI: > 50 µM
UACC-62 melanoma
  TGI: 13.8 µM
NCI-H226 lung
  TGI: 13.5 µM
BT-549 breast
  TGI: 22 µM
MDA-MB-231 breast
  TGI: 18.8 µM
OVCAR-5 ovarian
  TGI: 19.3 µM
SNB-75 CNS
  TGI: 20.4 µM
MDA-MB-435
  TGI: 22.7 µM
NCI/ADR-RES ovarian
  TGI: 28.2 µM
SNB-19 CNS
  TGI: 18.9 µM
MALME-3M melanoma
  TGI: 35.7 µM
COLO 205 colon
  TGI: 14.9 µM
M14 melanoma
  TGI: 15.8 µM
TK-10 renal
  TGI: 22.8 µM
SK-MEL-2 melanoma
  TGI: 19.6 µM
SK-MEL-28 melanoma
  TGI: 34.6 µM
KM12 colon
  TGI: 7.75 µM
ACHN renal
  TGI: 20.2 µM
T-47D breast
  TGI: 31.7 µM
LOX IMVI melanoma
  TGI: 13.6 µM
NCI-H460 lung
  TGI: 18.6 µM
HOP-92 NSCLC
  TGI: 32 µM
DU-145 prostate
  TGI: 46.6 µM

## COc1cc(Nc2cnc3cc(F)c(F)cc3n2)cc(OC)c1
RXF 393 renal
  TGI: 51.2 µM
EKVX NSCLC
  TGI: > 100 µM
SR leukemia
  TGI: > 100 µM
SF-539 CNS
  TGI: > 100 µM
A549 NSCLC
  TGI: > 100 µM
786-0 renal
  TGI: > 100 µM
SK-MEL-5 melanoma
  TGI: > 100 µM
OVCAR-4 ovarian
  TGI: > 100 µM
SK-OV-3 ovarian
  TGI: 79.1 µM
CAKI-1 renal
  TGI: > 100 µM
UACC-257 melanoma
  TGI: > 100 µM
NCI-H522 lung
  TGI: 42.4 µM
SN12C renal
  TGI: > 100 µM
UO-31 renal
  TGI: > 100 µM
MCF7 breast
  TGI: > 100 µM
U251 CNS
  TGI: > 100 µM
HCT-116 colon
  TGI: > 100 µM
SW-620 colon
  TGI: > 100 µM
CCRF-CEM leukemia
  TGI: > 100 µM
A498 renal
  TGI: > 100 µM
SF-268 CNS
  TGI: > 100 µM
PC-3 prostate
  TGI: > 100 µM
OVCAR-8 ovarian
  TGI: > 100 µM
IGROV1 ovarian
  TGI: > 100 µM
SF-295 CNS
  TGI: > 100 µM
HT29 colon
  TGI: > 100 µM
MDA-N
  TGI: > 100 µM
HOP-62 NSCLC
  TGI: > 100 µM
NCI-H23 lung
  TGI: 91 µM
HL-60(TB) leukemia
  TGI: > 100 µM
HCT-15 colon
  TGI: > 100 µM
OVCAR-3 ovarian
  TGI: > 100 µM
MOLT-4 leukemia
  TGI: > 100 µM
HS 578T breast
  TGI: > 100 µM
UACC-62 melanoma
  TGI: > 100 µM
NCI-H226 lung
  TGI: > 100 µM
BT-549 breast
  TGI: > 100 µM
OVCAR-5 ovarian
  TGI: > 100 µM
SNB-75 CNS
  TGI: 53.4 µM
MDA-MB-435
  TGI: > 100 µM
NCI/ADR-RES ovarian
  TGI: > 100 µM
SNB-19 CNS
  TGI: > 100 µM
MALME-3M melanoma
  TGI: > 100 µM
COLO 205 colon
  TGI: > 100 µM
M14 melanoma
  TGI: > 100 µM
TK-10 renal
  TGI: > 100 µM
SK-MEL-2 melanoma
  TGI: > 100 µM
SK-MEL-28 melanoma
  TGI: > 100 µM
KM12 colon
  TGI: > 100 µM
ACHN renal
  TGI: > 100 µM
T-47D breast
  TGI: > 100 µM
LOX IMVI melanoma
  TGI: > 100 µM
NCI-H460 lung
  TGI: > 100 µM
HOP-92 NSCLC
  TGI: > 100 µM
DU-145 prostate
  TGI: > 100 µM

Reference: PubChem BioAssay (NCI)
